In patent US12391679B2, “Benzamide-substituted bicyclic imidazo- and pyrazolo-fused -pyridine, -pyrimide, and -pyridazine compounds for treatment of inflammatory diseases” (ONCO3R Therapeutics BV, priority 2019, dated 2025):

Columns and labels:
[1] = molecular target: T1, SIK1 (Homo sapiens, UniProt P57059); assay: ADP-Glo kinase assay, SIK1; format: biochemical
T1 construct: purchased Carna Biosciences 02-131
Procedure, shortened: (§1)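 Each SIK isoform is incubated with substrate and ATP for 2 h at room temperature, after which residual ATP is depleted and the ADP formed is quantified by luminescence.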

[2] = molecular target: T2, SIK2 (Homo sapiens, UniProt Q9H0K1); assay: ADP-Glo kinase assay, SIK2; format: biochemical
T2 construct: purchased ThermoFisher Scientific PV4792
T2 sequence (Q9H0K1 whole entry): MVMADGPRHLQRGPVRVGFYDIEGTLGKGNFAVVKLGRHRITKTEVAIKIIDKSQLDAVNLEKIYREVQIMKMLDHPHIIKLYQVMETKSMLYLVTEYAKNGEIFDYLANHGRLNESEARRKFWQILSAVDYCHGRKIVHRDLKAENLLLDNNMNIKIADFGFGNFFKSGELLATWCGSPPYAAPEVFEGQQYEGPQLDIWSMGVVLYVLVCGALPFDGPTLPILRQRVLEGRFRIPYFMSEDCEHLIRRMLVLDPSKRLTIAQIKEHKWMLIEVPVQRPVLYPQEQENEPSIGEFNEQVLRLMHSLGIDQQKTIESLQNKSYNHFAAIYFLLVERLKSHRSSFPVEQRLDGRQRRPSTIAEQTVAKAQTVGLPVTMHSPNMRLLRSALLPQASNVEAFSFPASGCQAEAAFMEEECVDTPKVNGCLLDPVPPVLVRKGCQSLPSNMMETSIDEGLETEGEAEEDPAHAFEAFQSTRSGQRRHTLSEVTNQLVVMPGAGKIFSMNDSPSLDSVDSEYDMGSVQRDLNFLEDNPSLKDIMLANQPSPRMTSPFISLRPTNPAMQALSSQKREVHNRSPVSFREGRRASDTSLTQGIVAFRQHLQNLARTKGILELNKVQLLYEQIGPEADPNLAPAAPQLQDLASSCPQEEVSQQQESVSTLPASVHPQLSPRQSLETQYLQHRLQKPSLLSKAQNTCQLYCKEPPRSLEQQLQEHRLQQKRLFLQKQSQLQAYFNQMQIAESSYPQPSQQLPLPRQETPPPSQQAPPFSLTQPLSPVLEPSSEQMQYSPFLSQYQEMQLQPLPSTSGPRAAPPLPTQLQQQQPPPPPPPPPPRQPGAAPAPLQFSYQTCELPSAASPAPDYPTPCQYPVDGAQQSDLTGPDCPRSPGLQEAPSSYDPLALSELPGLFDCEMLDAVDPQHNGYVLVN
Procedure, shortened: as §1

[3] = system: LPS-induced TNFα in monocyte-derived macrophages; assay: MdM assay: LPS-triggered TNFα (ELISA); format: cell-based, human; conditions: Macrophage; human MdM; LPS 200 ng/mL; supernatant after 20 h; inhibition of TNFα; read-out: TNFα EC50
Procedure, shortened: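 TNFα secretion quantified by streptavidin-HRP/luminol sandwich ELISA in supernatants collected 20 h after LPS (200 ng/mL). Macrophages derived from magnetically isolated human CD14+ monocytes were used at day 10, with compound added 1 h before LPS; final DMSO 0.2%.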

T1 sequence (P57059 whole entry): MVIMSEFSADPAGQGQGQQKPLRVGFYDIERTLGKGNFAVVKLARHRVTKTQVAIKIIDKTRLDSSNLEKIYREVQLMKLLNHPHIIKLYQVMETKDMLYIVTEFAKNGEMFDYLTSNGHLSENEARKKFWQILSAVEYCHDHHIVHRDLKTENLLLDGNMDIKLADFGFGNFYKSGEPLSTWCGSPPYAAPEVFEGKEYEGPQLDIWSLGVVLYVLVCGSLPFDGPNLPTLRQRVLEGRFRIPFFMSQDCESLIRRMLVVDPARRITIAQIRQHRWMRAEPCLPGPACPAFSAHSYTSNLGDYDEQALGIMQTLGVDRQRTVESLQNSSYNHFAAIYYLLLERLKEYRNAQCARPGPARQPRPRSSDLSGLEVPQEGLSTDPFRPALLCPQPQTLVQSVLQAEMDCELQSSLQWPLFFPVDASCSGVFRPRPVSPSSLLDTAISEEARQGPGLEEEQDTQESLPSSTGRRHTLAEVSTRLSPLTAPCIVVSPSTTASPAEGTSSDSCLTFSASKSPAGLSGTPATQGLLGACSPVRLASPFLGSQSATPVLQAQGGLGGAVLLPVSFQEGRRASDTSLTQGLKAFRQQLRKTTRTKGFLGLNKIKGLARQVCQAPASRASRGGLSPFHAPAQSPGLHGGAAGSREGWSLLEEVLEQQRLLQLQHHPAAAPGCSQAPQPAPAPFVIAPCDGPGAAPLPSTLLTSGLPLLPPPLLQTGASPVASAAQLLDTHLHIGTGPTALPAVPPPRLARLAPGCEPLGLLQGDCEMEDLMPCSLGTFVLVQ

IC50 [1]	IC50 [2]	EC50 [3]	Structure (SMILES)
> 500 nM	100 to 500 nM	100 to 1000 nM	COc1cc(-c2cnc3cc(C(C)(C)O)ccn23)cc(OC(F)F)c1C(=O)N[C@@H]1C[C@@H]1F [Cpd 211, 2-(difluoromethoxy)-N-[(1R,2S)-2-fluorocyclopropyl]-4-[7-(1-hydroxy-1-methyl-ethyl)imidazo[1,2-a]pyridin-3-yl]-6-methoxy-benzamide]
100 to 500 nM	100 to 500 nM	100 to 1000 nM	COc1cc(-c2cnn3cc(C4COC4)ccc23)cc(OC(F)F)c1C(=O)NC1CC1 [Cpd 216, N-cyclopropyl-2-(difluoromethoxy)-6-methoxy-4-[6-(oxetan-3-yl)pyrazolo[1,5-a]pyridin-3-yl]benzamide]
100 to 500 nM	10 to 100 nM	100 to 1000 nM	COc1cc(-c2cnn3cc(C4COC4)ccc23)cc(OC(F)F)c1C(=O)N[C@@H]1C[C@@H]1F [Cpd 218, 2-(difluoromethoxy)-N-[(1R,2S)-2-fluorocyclopropyl]-6-methoxy-4-[6-(oxetan-3-yl)pyrazolo[1,5-a]pyridin-3-yl]benzamide]
100 to 500 nM	10 to 100 nM	100 to 1000 nM	COc1cc(-c2cnc3cc(C4(F)COC4)ccn23)cc(OC(F)F)c1C(=O)N[C@@H]1C[C@@H]1F [Cpd 224, 2-(difluoromethoxy)-N-[(1R,2S)-2-fluorocyclopropyl]-4-[7-(3-fluorooxetan-3-yl)imidazo[1,2-a]pyridin-3-yl]-6-methoxy-benzamide]
> 500 nM	100 to 500 nM	100 to 1000 nM	COc1cc(-c2cnn3cc(C(C)(C)O)ccc23)cc(OC(F)F)c1C(=O)N[C@@H]1C[C@@H]1F [Cpd 227, 2-(difluoromethoxy)-N-[(1R,2S)-2-fluorocyclopropyl]-4-[6-(1-hydroxy-1-methyl-ethyl)pyrazolo[1,5-a]pyridin-3-yl]-6-methoxy-benzamide]
> 500 nM	100 to 500 nM	100 to 1000 nM	COc1cc(-c2cnc3cc(C(C)(C)C#N)cnn23)cc(OC(F)F)c1C(=O)N[C@@H]1C[C@@H]1F [Cpd 228, 4-[7-(1-cyano-1-methyl-ethyl)imidazo[1,2-b]pyridazin-3-yl]-2-(difluoromethoxy)-N-[(1R,2S)-2-fluorocyclopropyl]-6-methoxy-benzamide]
> 500 nM	> 500 nM	100 to 1000 nM	COc1cc(-c2cnn3cc(C(C)(C)C#N)cnc23)cc(OC(F)F)c1C(=O)N[C@@H]1C[C@@H]1F [Cpd 231, 4-[6-(1-cyano-1-methyl-ethyl)pyrazolo[1,5-a]pyrimidin-3-yl]-2-(difluoromethoxy)-N-[(1R,2S)-2-fluorocyclopropyl]-6-methoxy-benzamide]
> 500 nM	100 to 500 nM	100 to 1000 nM	COc1cc(-c2cnn3cc(C4COCCO4)ccc23)cc(OC(F)F)c1C(=O)NC1CC1 (stereo not drawn) [Cpd 232, N-cyclopropyl-2-(difluoromethoxy)-4-[6-(1,4-dioxan-2-yl)pyrazolo[1,5-a]pyridin-3-yl]-6-methoxy-benzamide]
100 to 500 nM	10 to 100 nM	100 to 1000 nM	COc1cc(-c2cnn3cc(C4(C#N)CC4)ccc23)cc(OC(F)F)c1C(=O)N[C@@H]1C[C@@H]1F [Cpd 235, 4-[6-(1-cyanocyclopropyl)pyrazolo[1,5-a]pyridin-3-yl]-2-(difluoromethoxy)-N-[(1R,2S)-2-fluorocyclopropyl]-6-methoxy-benzamide]
> 500 nM	> 500 nM	100 to 1000 nM	COc1cc(-c2cnn3cc(C(C)(C)CO)ccc23)cc(OC(F)F)c1C(=O)NC1CC1 [Cpd 236, N-cyclopropyl-2-(difluoromethoxy)-4-[6-(2-hydroxy-1,1-dimethyl-ethyl)pyrazolo[1,5-a]pyridin-3-yl]-6-methoxy-benzamide]
> 500 nM	> 500 nM	1000 to 5000 nM	COc1cc(-c2cnn3cc(C4(C#N)CCOCC4)ccc23)cc(OC(F)F)c1C(=O)NC1CC1 [Cpd 237, 4-[6-(4-cyanotetrahydropyran-4-yl)pyrazolo[1,5-a]pyridin-3-yl]-N-cyclopropyl-2-(difluoromethoxy)-6-methoxy-benzamide]
> 500 nM	> 500 nM	100 to 1000 nM	COc1cc(-c2cnn3cc(C(C)(C)CO)ccc23)cc(OC(F)F)c1C(=O)N[C@@H]1C[C@@H]1F [Cpd 242, 2-(difluoromethoxy)-N-[(1R,2S)-2-fluorocyclopropyl]-4-[6-(2-hydroxy-1,1-dimethyl-ethyl)pyrazolo[1,5-a]pyridin-3-yl]-6-methoxy-benzamide]
> 500 nM	> 500 nM	100 to 1000 nM	COc1cc(-c2cnn3cc(C4(C#N)CCOCC4)ccc23)cc(OC(F)F)c1C(=O)N[C@@H]1C[C@@H]1F [Cpd 243, 4-[6-(4-cyanotetrahydropyran-4-yl)pyrazolo[1,5-a]pyridin-3-yl]-2-(difluoromethoxy)-N-[(1R,2S)-2-fluorocyclopropyl]-6-methoxy-benzamide]
> 500 nM	> 500 nM	100 to 1000 nM	COc1cc(-c2cnn3cc(C(C)(C)C#N)ccc23)cc(OC)c1C(=O)N[C@@H]1C[C@@H]1F [Cpd 245, 4-[6-(1-cyano-1-methyl-ethyl)pyrazolo[1,5-a]pyridin-3-yl]-N-[(1R,2S)-2-fluorocyclopropyl]-2,6-dimethoxy-benzamide]
> 500 nM	> 500 nM	1000 to 5000 nM	COc1cc(-c2cnn3cc(C4(C(N)=O)CCC4)ccc23)cc(OC(F)F)c1C(=O)N[C@@H]1C[C@@H]1F [Cpd 254, 4-[6-(1-carbamoylcyclobutyl)pyrazolo[1,5-a]pyridin-3-yl]-2-(difluoromethoxy)-N-[(1R,2S)-2-fluorocyclopropyl]-6-methoxy-benzamide]
> 500 nM	> 500 nM	1000 to 5000 nM	COc1cc(-c2cnn3cc(C(C)(C)N)ccc23)cc(OC(F)F)c1C(=O)N[C@@H]1C[C@@H]1F [Cpd 256, 4-[6-(1-amino-1-methyl-ethyl)pyrazolo[1,5-a]pyridin-3-yl]-2-(difluoromethoxy)-N-[(1R,2S)-2-fluorocyclopropyl]-6-methoxy-benzamide]
> 500 nM	100 to 500 nM	100 to 1000 nM	COc1cc(-c2cnn3cc(C4(O)CCC4)ccc23)cc(OC(F)F)c1C(=O)N[C@@H]1C[C@@H]1F [Cpd 266, 2-(difluoromethoxy)-N-[(1R,2S)-2-fluorocyclopropyl]-4-[6-(1-hydroxycyclobutyl)pyrazolo[1,5-a]pyridin-3-yl]-6-methoxy-benzamide]
> 500 nM	> 500 nM	100 to 1000 nM	COc1cc(-c2cnn3cc(C(C)(C)COS(C)(=O)=O)ccc23)cc(OC(F)F)c1C(=O)N[C@@H]1C[C@@H]1F [Cpd 267, [2-[3-[3-(difluoromethoxy)-4-[[(1R,2S)-2-fluorocyclopropyl]carbamoyl]-5-methoxy-phenyl]pyrazolo[1,5-a]pyridin-6-yl]-2-methyl-propyl]methanesulfonate]
> 500 nM	> 500 nM	100 to 1000 nM	COc1cc(-c2cnn3cc(C(C)(C)CN4CCOCC4)ccc23)cc(OC(F)F)c1C(=O)N[C@@H]1C[C@@H]1F [Cpd 269, 2-(difluoromethoxy)-4-[6-(1,1-dimethyl-2-morpholino-ethyl)pyrazolo[1,5-a]pyridin-3-yl]-N-[(1R,2S)-2-fluorocyclopropyl]-6-methoxy-benzamide]

Structure (SMILES)	IC50 [1]	IC50 [2]	EC50 [3]
COc1cc(-c2cnn3cc(C4(N)CCC4)ccc23)cc(OC(F)F)c1C(=O)N[C@@H]1C[C@@H]1F [Cpd 261, 4-[6-(1-aminocyclobutyl)pyrazolo[1,5-a]pyridin-3-yl]-2-(difluoromethoxy)-N-[(1R,2S)-2-fluorocyclopropyl]-6-methoxy-benzamide]	> 500 nM	> 500 nM	1000 to 5000 nM
